Like-named read-outs stand apart in the source and are kept apart here.
Legend:
[1] = Titration curves of buffers with standardized 0.1 N NaOH or HCl, pH meter; type: physicochemical; details: for pKa: distilled water; for buffering range in the presence of magnesium: magnesium added
Description: Aqueous solutions containing chlorine and/or hypochlorous acid are referred to herein as free active chlorine or “FAC” solutions, regardless of their method of preparation and without regard to other species that may be present. Concentrations of HOCl are reported herein as ppm active chlorine, as determined by colorimetry using N,N-diethyl-p-phenylenediamine (DPD) as indicator. Samples were diluted 999:1 with distilled water prior to addition of a DPD-1 tablet (Pollardwater, New Hyde Park, N.Y.) to a 10-ml sample, and the value for ppm chlorine was determined with a colorimeter (MW-10, Milwaukee Instruments, Rocky Mount, N.C.) Chloride concentrations were determined by agentometric (Mohr) titration. Titration curves were determined by dissolving 40 mg of buffer in 20 ml distilled water and adding standardized 0.1 N NaOH or HCl, with pH measured with a digital pH meter calibrated daily at pH 4.0. New and known buffers were synthesized by the cited literature methods, varying the starting materials as required.

[2] = cited from earlier work
[3] = forward titration with NaOH, no additive

SMILES: O=P(O)(O)c1cccc(S(=O)(=O)O)c1 [3-phosphonobenzenesulfonic acid]
- buffering from first phosphonate proton ([1]; no additive): 1.5-2 pH
- moderate buffering from second phosphonate proton ([1]; no additive): 6.5-7.5 pH

SMILES: O=P(O)(O)c1ccccc1 [Phenyphosphonic acid]
- second pKa [2]: over 7

SMILES: O=P(O)(O)c1cccc(P(=O)(O)O)c1P(=O)(O)O [benzene-1,2,3-triphosphonic acid]
- missing proton ([1]; after addition of calcium nitrate, back titration with HCl): present ant titratable
- pH at which three protons are titrated [1, 3]: 2-4 pH
- pH at which two protons are titrated [1, 3]: 7-11 pH

SMILES: O=P(O)(O)c1ccc(P(=O)(O)O)c(P(=O)(O)O)c1 [benzene-1,2,4-triphosphonic acid]
- buffering at pH 4-6 ([1]; pure triacid, no additive): completely absent
- buffering at pH 4-6 ([1]; zinc nitrate added, back titration with HCl): present

SMILES: O=P(O)(O)c1ccccc1P(=O)(O)O [benzene-1,2-diphosphonic acid]
- third pKa value ([1]; added strontium nitrate, compared to no additive): relatively unchanged
- pKa ([1]; added strontium nitrate, read-out: first two pKa values): 3 to 4
- pKa ([1]; added strontium nitrate, read-out: fourth pKa value): 9.5 to 10.5
- pKa ([1]; magnesium sulfate present, read-out: fourth pKa): < 8
- pKa ([1]; one equivalent of boric acid, read-out: third and fourth pKa values): 7 to 9
- buffering from the fourth pKa / fourth pKa value ([1]; no additive): cannot be observed
- extended buffering ([1]; one equivalent of boric acid, overlap with boric acid buffering): 8-9 pH

SMILES: O=P(O)(O)c1cccc(P(=O)(O)O)c1 [benzene-1,3-diphosphonic acid]
- pKa values observed ([1]; no additive): typical benzenephosphonic acid pKa values

SMILES: O=P(O)(O)C(Cl)(Cl)P(=O)(O)O [clodronic acid, dichloromethanediphosphonic acid, reference compound]
- pKa ([1]; zinc nitrate (2 equivalents) added prior to titration, read-out: third and fourth pKa values): 3.5 to 4.5
- buffering range in the presence of magnesium [1]: 5-8 pH
- buffering from the first two pKas / first two protons ([1]; no additive): 2-3 pH
- buffering from the fourth pKa / fourth pKa value ([1]; no additive): 9-10 pH
- buffering from the third pKa / third proton ([1]; no additive): 6-7 pH

SMILES: O=P(O)(O)C(F)(F)C(F)(F)F [pentafluoroethylphosphonic acid]
- buffering from the first pKa ([1]; no additive): 2.5-3.5 pH
- buffering from the second pKa ([1]; no additive): 4-5 pH

SMILES: O=P(O)(O)O [phosphate, phosphoric acid, reference compound]
- buffering capacity in the pH range 3-6 ([1]; no additive): no buffering capacity
- buffering capacity, lower range ([1]; no additive): 2-3 pH
- buffering capacity, upper range ([1]; no additive): 7-8 pH

SMILES: O=P(O)(O)c1cccc(P(=O)(O)O)n1 [pyridine-2,6-diphosphonic acid]
- buffering range in the presence of magnesium [1]: 2-3 pH
- buffering, titration with NaOH from pH 2 to 11 ([1]; no additive): only modest buffering

Reference: patent US11317632B2, “Materials amd methods for buffering active chlorine solutions” (Pharmocon LLC, priority 2017, dated 2022)
